Data reported in paper PMC5454942, “The Potential of Triterpenoids from Loquat Leaves (Eriobotrya japonica) for Prevention and Treatment of Skin Disorder” (International Journal of Molecular Sciences, 2017).
≈ marks a conversion by molar mass, not a printed value. Where “and” joins values, the source holds several entries; their conditions need not be identical. Equal entries are not always repeated. Where two headings read alike, the source gives them in different places.

How the values were obtained:
Propionibacterium acnes = assay: Anti-bacterial assay (growth inhibition, MIC/MBC by broth microdilution); type: cell-based; conditions: for activity against P. acnes (in words): at their maximum solubility; for Inhibition Rate (P. acnes growth): concentration 100 μg/mL
Protocol: The antibacterial assay was based mostly on the methods described by Tanaka et al. with slight modification. Propionibacterium acne (NBRC 107605) was used for the antibacterial assay. A single colony of the test strain was taken and 5 mL of Gifu anaerobic medium (GAM) broth (Nissui, Tokyo) was added to it. This culture was incubated at 37 °C for 30 h. It was then added to the bacterial suspension to prepare a bacterial concentration at 10^5 CFU/mL. The bacterial solution was used for the subsequent antibacterial assay. Each compound was dissolved in DMSO, and benzalkonium chloride (Wako) was used as a positive control. The plate was incubated at 37 °C for 30 h. Finally, bacterial growth was measured by a microplate reader at 630 nm. The MIC and MBC were evaluated by the standard broth microdilution method.

B16 melanoma cells [1] = assay: Cell viability of B16 melanoma cells (MTT); conditions: for Inhibition rate (100% − cell viability): B16 cells; for CC50 cell viability / CC50: B16 melanoma cells, MTT; for CC50: read-out: CC50 (cell viability)
Protocol: (§1) This assay was performed as described by Arung et al.. The mouse melanoma cell line B16 was obtained from the Riken Bioresource Center Cell Bank (Tsukuba, Japan). The B16 melanoma cells were maintained in Eagle’s Minimal Essential Medium (EMEM, Nissui Chemical, Tokyo) supplemented with 10% (v/v) fetal bovine serum (FBS; Gibco, Carlsbad, CA, USA) and 0.09 mg/mL theophylline (Sigma-Aldrich, St. Louis, MO, USA). […] After 24 h, test samples were dissolved in DMSO (<0.2% per well) and sample solution were added to each well. Arbutin (Tokyo Kasei Kogyo, Tokyo) was used as a positive control. The cells were incubated for an additional 48 h, and then the medium was replaced with fresh medium containing each sample again. After 24 h, the melanin content and the cell viability were measured using a microplate reader (BioTek-ELX800, BioTek Instruments, Winooski, VT, USA) at 405 nm and 570 nm, respectively. Cell viability was measured using the MTT (3-(4,5-dimethylthiazol-2-yl)-2,5-diphenyltetrazolium bromide) method.

B16 melanoma cells [2] = assay: Anti-melanogenesis assay (melanin content); type: cell-based, mouse
Protocol: as §1

RBL-2H3 cells [3] = assay: Cell viability of RBL-2H3 cells (parallel MTT); type: cell-based, rat; conditions: 25 μg/ml, RBL-2H3 cells
Protocol: (§2) The anti-allergy assay was based mostly on the methods described by Zhu et al. and Yun et al. with slight modification. Rat basophilic leukemia (RBL-2H3) cells were obtained from the Riken Bio-resource Center Cell Bank (Tsukuba, Japan). RBL-2H3 cells were incubated in EMEM medium containing 10% FBS and 1% antibiotics–antimycotics at 37 °C. The cells were seeded on a 96-well plate (2 × 10^5 cells/well). After 24 h of incubation, the medium was supplemented with 0.5 μg/mL anti-DNP (dinitrophenol) mouse immunoglobulin E (IgE) (Sigma-Aldrich). After an additional 24 h of incubation, the medium was replaced with 100 μL of Tyrode buffer. The sample dissolved in DMSO (<0.5% per well) was added, and the cell plate was incubated again for 30 min, then replaced with 100 μL of tyrode buffer containing 50 μg/mL DNP-bovine serum albumin (BSA) (Invitrogen, Carlsbad, CA, USA). After 1 h of incubation, 50 μL of the supernatant was collected from each well and mixed with 50 μL of substrate solution (p-nitrophenyl-N-acetyl-β-glucosaminide, 2 mM; Sigma-Aldrich) in a new 96-well plate. The mixture was incubated at room temperature on a shaker for 3 h. Finally, 100 μL of stop solution was added, and the absorbance was read at 405 nm. A parallel MTT experiment was performed to measure the cell viability. The MTT experiment was done exactly as described.

NHDF cells = assay: Skin type I collagen synthesis promoting assay (ELISA, with MTT); type: cell-based, human; conditions: 5 μg/mL, fold of control
Protocol: The assay for measuring the promotion of skin collagen synthesis was described by Kishikawa et al.. Adult NHDF cells (Lonza, Tokyo) were routinely maintained in 10% FBS and 1% antibiotic-antimycotic (Invitrogen) in Dulbecco’s modified Eagle’s medium (DMEM, Wako). After growing to confluence, cells at a density of 5 × 10^3 cells/well were seeded on 96-well plates for 24 h before the treatment. The medium was replaced with a mixture of 1 μL of sample solution (DMSO < 0.5% per well) and 99 μL of DMEM supplemented with 0.5% FBS. After 72 h of cultivation, the amount of collagen in the medium was measured using a human type I collagen enzyme-linked immunosorbent assay (ELISA) kit (ACEL, Kanagawa, Japan). The amount of collagen production was calculated using a standard curve prepared by measurement by the same ELISA. The cells remaining in the 96-well plate were subjected to an MTT assay. Ascorbic acid (100 μM, Wako) was used as a positive control.

in vitro = conditions: mouse
Protocol: as §1

RBL-2H3 cells [4] = assay: β-hexosaminidase release from IgE-stimulated RBL-2H3 mast cells; type: cell-based, rat; conditions: Rattus norvegicus, RBL-2H3
Protocol: as §2

[5] = Cell viability of RBL-2H3 cells (parallel MTT); type: cell-based, rat; conditions: rat
Protocol: as §2

[6] = B16 melanoma cells, read-out: IC50 (melanin synthesis)
[7] = Mus musculus, B16 melanoma cells, read-out: IC50 (melanin synthesis)
[8] = Mus musculus, B16 melanoma cells, read-out: IC50 melanin
[9] = Mus musculus, B16, read-out: Inhibition rate (100% − melanin synthesis)

Row | SMILES | MBC (Propionibacterium acnes; P. acnes, broth microdilution) | MIC (Propionibacterium acnes; P. acnes, broth microdilution) | activity against P. acnes (in words) (Propionibacterium acnes) | Inhibition Rate (P. acnes growth) (Propionibacterium acnes) | Inhibition rate (100% − cell viability) (B16 melanoma cells [1]; 1 μg/ml) | Inhibition rate (100% − cell viability) (B16 melanoma cells [1]; 2.5 μg/ml) | Inhibition rate (100% − cell viability) (B16 melanoma cells [1]; 5 μg/ml) | Inhibition rate (100% − cell viability) (B16 melanoma cells [1]; 10 μg/ml) | Inhibition rate (100% − cell viability) (B16 melanoma cells [1]; 20 μg/ml) | CC50 cell viability (B16 melanoma cells [1]) | CC50 (B16 melanoma cells [1]) | Inhibition rate (100% − melanin synthesis) (B16 melanoma cells [2]; 1 μg/ml, B16 cells) | Inhibition rate (100% − melanin synthesis) (B16 melanoma cells [2]; 2.5 μg/ml, B16 cells) | Inhibition rate (100% − melanin synthesis) (B16 melanoma cells [2]; 5 μg/ml, B16 cells) | Inhibition rate (100% − melanin synthesis) (B16 melanoma cells [2]; 10 μg/ml, B16 cells) | Inhibition rate (100% − melanin synthesis) (B16 melanoma cells [2]; 20 μg/ml, B16 cells) | IC50 melanin (B16 melanoma cells [2]; B16 melanoma cells) | IC50 (B16 melanoma cells [2]; [6]) | Cell viability (RBL-2H3 cells [3]) | CP/CV value (collagen production %/cell viability %) (NHDF cells) | further results
1 | C[C@@H]1CC[C@]2(C(=O)O)CC[C@]3(C)C(=CC[C@@H]4[C@@]5(C)C[C@@H](O)[C@H](OC(=O)/C=C/c6ccc(O)cc6)C(C)(C)[C@@H]5CC[C@]43C)[C@@H]2[C@]1(C)O (relative stereo) [Compound 17, 3-O-trans-p-coumaroyl tormentic acid] | 200 µg/mL (≈ 315 µM) | 100 µg/mL (≈ 158 µM) | active | 101.4 ± 2.1% | 0.0 ± 8.4% | 5.1 ± 6.0% | 10.7 ± 10.0% | 41.1 ± 9.2% | 61.0 ± 1.6% | 15.6 µg/mL (≈ 24.6 µM) | 24 µM | 2.8 ± 0.9% | 6.2 ± 1.7% | 11.1 ± 0.6% | 29.4 ± 6.8% | 30.5 ± 6.0% | > 20.0 µg/mL | > 30.9 µM | 99.8 ± 7.0% | 1.2 | –
2 | C[C@@H]1CC[C@]2(C(=O)O)CC[C@]3(C)C(=CC[C@@H]4[C@@]5(C)C[C@@H](O)[C@H](OC(=O)/C=C\c6ccc(O)cc6)C(C)(C)[C@@H]5CC[C@]43C)[C@@H]2[C@]1(C)O (relative stereo) [Compound 18, 3-O-cis-p-coumaroyl tormentic acid] | 200 µg/mL (≈ 315 µM) | 100 µg/mL (≈ 158 µM) | active | 103.5 ± 2.2% | 7.0 ± 8.8% | 6.6 ± 11.1% | 12.6 ± 8.4% | 42.4 ± 14.9% | 80.1 ± 9.5% | 12.6 µg/mL (≈ 19.8 µM) | 19.5 µM | 0.0 ± 2.1% | 0.0 ± 5.3% | 0.0 ± 3.8% | 35.6 ± 1.1% | 47.1 ± 6.0% | > 20.0 µg/mL | > 30.9 µM | 104.6 ± 6.7% | 1.1 | –
3 | OC[C@H]1O[C@@H](Oc2ccc(O)cc2)[C@H](O)[C@@H](O)[C@@H]1O [Arbutin, reference compound] | – | – | – | – | – | – | – | – | – | – | – | – | – | – | – | – | – | – | – | – | CC50 at 72 h (in vitro): 1820 µM; IC50 (B16 melanoma cells [2]; [7]): 976 µM
4 | C[C@H]1[C@H](C)CC[C@]2(CO)CC[C@]3(C)C(=CC[C@@H]4[C@@]5(C)CC[C@H](O)C(C)(C)[C@@H]5CC[C@]43C)[C@H]12 [Compound 3, Uvaol] | – | – | – | – | – | – | 4.0 ± 7.6% | 10.8 ± 6.8% | 6.5± 7.4% | – | – | – | – | – | – | – | – | – | – | – | inhibition at 50 µg/mL (Propionibacterium acnes; Cutibacterium acnes, concentration 50 μg/mL, read-out: Inhibition Rate (P. acnes growth)): < 0%; inhibition at 25 µg/mL (RBL-2H3 cells [4]; 25 μg/mL, read-out: Inhibition Rate (β-hexosaminidase release)): 29.9 ± 3.3%; CC50 at 72 h (in vitro; B16 melanoma cells): > 45.2 µM; inhibition at 5 µg/mL (B16 melanoma cells [2]; Mus musculus, 5 μg/ml, B16 cells, read-out: Inhibition rate (100% − melanin synthesis)): 0%; inhibition at 10 µg/mL (B16 melanoma cells [2]; Mus musculus, 10 μg/ml, B16 cells, read-out: Inhibition rate (100% − melanin synthesis)): 14.2 ± 2.6%; inhibition at 20 µg/mL (B16 melanoma cells [2]; Mus musculus, 20 μg/ml, B16 cells, read-out: Inhibition rate (100% − melanin synthesis)): 14.6 ± 4.6%; IC50 (B16 melanoma cells [2]; [7]): > 45.2 µM; IC50 (B16 melanoma cells [2]; [8]): > 20 µg/mL; viability at 25 μg/ml ([5]; 25 μg/ml, RBL-2H3 cells, read-out: Cell viability): 110 ± 10.2%
5 | C[C@@H]1CC[C@]2(C(=O)O)CC[C@]3(C)C(=CC[C@@H]4[C@@]5(C)C[C@@H](O)[C@H](O)C(C)(C)[C@@H]5CC[C@]43C)[C@@H]2[C@]1(C)O [Compound 11, tormentic acid] | 200 µg/mL (≈ 409 µM) | 100 µg/mL (≈ 205 µM) | active | 102.8 ± 2.1% | 12.0 ± 12.8% | 13.7 ± 10.7% | 8.7 ± 12.1% | 52.4 ± 8.6% | 85.8 ± 1.6% | 11.4 µg/mL (≈ 23.3 µM) | 23.3 µM | 0.0± 6.1% | 11.3 ± 3.4% | 34.8 ± 4.5% | 51.3 ± 0.9% | 73.4 ± 8.0% | 9.0 µg/mL (≈ 18.4 µM) | 18.5 µM | 62.6 ± 1.1% | 1.3 | –
6 | CC1CCC2(C(=O)O)CCC3(C)C(=CCC4C5(C)C(CO)=CC(C)(C)C5CCC43C)C2C1(C)O (centres unmarked) [Compound 16, hyptadienic acid] | – | – | active | – | 3.7 ± 3.8% | 14.7 ± 4.2% | 28.9 ± 3.2% | 60.3 ± 6.5% | – | – | – | – | – | – | – | – | – | – | – | – | MBC (Propionibacterium acnes; Cutibacterium acnes): 200 µg/mL (≈ 425 µM); MIC (Propionibacterium acnes; Cutibacterium acnes): 100 µg/mL (≈ 212 µM); inhibition at 100 µg/mL (Propionibacterium acnes; Cutibacterium acnes, read-out: Inhibition Rate (P. acnes growth)): 104 ± 3.1%; CC50 at 72 h (in vitro): 7.8 µg/mL and 16.5 µM; S.I (selectivity index, CC50 value/IC50 value) (B16 melanoma cells [2]; B16 melanoma cells): 0.8; IC50 (B16 melanoma cells [2]; Mus musculus, B16, read-out: IC50 (melanin synthesis)): 21.6 µM; inhibition at 1 µg/mL (B16 melanoma cells [2]; [9]): 0.1 ± 4.5%; inhibition at 2.5 µg/mL (B16 melanoma cells [2]; [9]): 1.9 ± 3.4%; inhibition at 5 µg/mL (B16 melanoma cells [2]; [9]): 13.4 ± 5.5%; inhibition at 10 µg/mL (B16 melanoma cells [2]; [9]): 51.8 ± 5%; IC50 (B16 melanoma cells [2]; [8]): 10.1 µg/mL; viability at 25 μg/ml [5]: 99.9 ± 2.3%
7 | O=c1c(O)c(-c2ccc(O)c(O)c2)oc2cc(O)cc(O)c12 [Quercetin, reference compound] | – | – | – | – | – | – | – | – | – | – | – | – | – | – | – | – | – | – | – | – | inhibition at 82 µM (RBL-2H3 cells [4]; 82 μM, positive control, read-out: inhibition rate of β-hexosaminidase release): 72.5%
